Results from patent US9751919B2, “Antimicrobial compositions comprising a hyaluronic acid binding peptide and a β-lactam antibiotic” (priority 2012, dated 2017).
“And” between values parts separate entries of the source, which are not always exact repeats. Equal values may be shown once. Read-outs that look alike come from different tables or passages of the source. Marks after values point to notes of the source that are not given here.

Experiments:
E. coli [1] = assay: MIC (CLSI broth dilution), agent alone; assay type: cell-based, Escherichia coli
Protocol: (§1) VISA (strains 92, 95 and 96), VRSA (strains 105 and 106) and E. coli (strain 69717) isolates were also tested. One MSSA was used as a control. All MICs were assessed using CLSI guidelines. Also assessed was the activity of cefazolin, ceftriazone, meropenem, and a piperacillin/tazobactam combination antibiotic. Minimum inhibitory concentration (MIC) is the lowest concentration of an antimicrobial that will inhibit the visible growth of a microorganism after incubation.
(§2) Antimicrobial Susceptibility Testing: A custom designed panel of antimicrobials was created. The panel included: PEP35, penicillin, piperacillin/tazobactam, cefazolin, ceftriaxone, meropenem, clarithromycin, clindamycin, gentamicin, amikacin, vancomycin, ciprofloxacin, levofloxacin, moxifloxacin, linezolid, trimethoprim/sulfamethoxazole and doxycycline. These agents were obtained as laboratory grade powders from their respective manufacturers. Stock solutions were prepared and dilutions made as described by the Clinical Laboratory Standards Institute (2005 CLSI). Following two subcultures from frozen stock the MICs of the antimicrobial agents for the isolates were determined by the CLSI 2005 approved broth macrodilution method. Briefly, test tubes containing doubling antibiotic dilutions (2 ml per tube) of cation adjusted Mueller-Hinton broth (eg. for Enterobacteriaceae) with or without lysed horse blood (2-5% V/V) [eg. for S. pneumoniae] were inoculated to achieve a final concentration of approximately 5×10^5 CFU/ml and incubated in ambient air for 24 hours prior to reading. Colony counts were performed periodically to confirm inocula. Quality control was performed every two weeks using a variety of ATCC QC organisms including; S. aureus 29213, E. faecalis 29212, E. coli 25922 and P. aeruginosa 27853. For all antimicrobials as well as PEP35, CLSI criteria were used.
(§3) One MS SA and ATCC reference strains were used as controls. All MICs were assessed using CLSI guidelines.

MSSA = assay: MIC (CLSI broth dilution), agent alone; assay type: cell-based, Staphylococcus aureus; conditions: for MIC: S. aureus control, agent alone
Protocol: as §1
as §2, with “The panel included: PEP35, penicillin, piperacillin/tazobactam, cefazolin, ceftriaxone, meropenem, clarithromycin, clindamycin, gentamicin, amikacin, vancomycin, ciprofloxacin, levofloxacin, moxifloxacin, linezolid, trimethoprim/sulfamethoxazole and doxycycline.” left out, “27853.” for “27853. For all antimicrobials as well as PEP35, CLSI criteria were used.”
(§4) One MSSA was used as a control. All MICs were assessed using CLSI guidelines.
as §3

CA-MRSA = assay: MIC (CLSI broth dilution), agent alone; assay type: cell-based, Staphylococcus aureus; conditions: for MIC: Staphylococcus aureus
Protocol: as §1
as §2, with “The panel included: PEP35, penicillin, piperacillin/tazobactam, cefazolin, ceftriaxone, meropenem, clarithromycin, clindamycin, gentamicin, amikacin, vancomycin, ciprofloxacin, levofloxacin, moxifloxacin, linezolid, trimethoprim/sulfamethoxazole and doxycycline.” left out, “27853.” for “27853. For all antimicrobials as well as PEP35, CLSI criteria were used.”
as §4, §3

HA-MRSA = assay: MIC (CLSI broth dilution), agent alone; assay type: cell-based, Staphylococcus aureus
Protocol: as §1
as §2, with “The panel included: PEP35, penicillin, piperacillin/tazobactam, cefazolin, ceftriaxone, meropenem, clarithromycin, clindamycin, gentamicin, amikacin, vancomycin, ciprofloxacin, levofloxacin, moxifloxacin, linezolid, trimethoprim/sulfamethoxazole and doxycycline.” left out, “27853.” for “27853. For all antimicrobials as well as PEP35, CLSI criteria were used.”
as §4, §3

P. aeruginosa = assay: Checkerboard assay (FIC index); assay type: cell-based, Pseudomonas aeruginosa; conditions: antibiotic combined with PEP35
Protocol: (§5) The checkerboard assays were carried out as described by Eliopoulos and Moellering (Chapter 9) in Antibiotic in Laboratory Medicine, Lorian Ed. 1996 as well as Bonapace et al. Diagnostic Microbiology and Infectious Diseases 2002; 44:363-366 and Bonapace et al. Diagnostic Microbiology and Infectious Diseases 2000; 38:43-50. In brief, checkerboard assays were performed in 96 well microtitre trays using an 8-by-8 well configuration. […] 96-well custom designed microtitre plates contained 100 ul/well of cation adjusted Mueller-Hinton broth (eg. for Enterobacteriaceae) with or without lysed horse blood (2-5% V/V) [eg. for S. pneumoniae] and were inoculated to achieve a final concentration of approximately 5×10^5 CFU/ml and incubated in ambient air for 24 hours prior to reading. Colony counts were performed periodically to confirm inocula. Quality control was performed every two weeks using a variety of ATCC QC organisms including; S. pneumoniae 49619, S. aureus 29213, E. faecalis 29212, E. coli 25922 and P. aeruginosa 27853. For all antimicrobials as well as PEP35, CLSI criteria was used.
(§6) The fractional inhibitory concentration index (FIC index) was used to interpret synergy, antagonism or additivity/indifference. FIC index=FIC of drug A+FIC of drug B where:
(§7) The FIC of drug A and drug B is calculated as follows, FIC drug A=MIC of drug A in combination/MIC of drug A alone and FIC of drug B=MIC of drug B in combination/MIC of drug B alone. Synergy is defined as FIC index ≦0.5, additivity/indifference FIC >0.5-4 and antagonism FIC index >4.
(§8) Antimicrobials used included PEP35, cefazolin, ceftriaxone, vancomycin, linezolid, tigecycline and daptomycin versus Gram-positive cocci and PEP35, gentamicin, levofloxacin, piperacillin/tazobactam, meropenem and colistin (Polymyxin E) versus Gram-negative bacilli. These agents were obtained as laboratory grade powders from their respective manufacturers. Stock solutions were prepared and dilutions made as described by the Clinical Laboratory Standards Institute (2005 CLSI).
(§9) Organisms included Gram-positive cocci (2 strains of each): Methicillin-susceptible Staphylococcus aureus (MSSA), community-associated (CA) and healthcare-associated (HA) methicillin-resistant Staphylococcus aureus (MRSA), vancomycin-intermediate Staphylococcus aureus (VISA), vancomycin-resistant Staphylococcus aureus (VRSA), methicillin-resistant Staphylococcus epidermidis (MRSE), Streptococcus pyogenes, Streptococcus agalactiae, Streptococcus pneumoniae, Enterococcus faecalis, Enterococcus faecium and vancomycin-resistant enterococcus (VRE). Gram-negative bacilli tested (2 strains of each) included: E. coli, Pseudomonas aeruginosa, Klebsiella pneumoniae, K. oxytoca, Enterobacter cloacae, P. mirabilis and Stenotrophomonas maltophilia. MIC testing, following two subcultures from frozen stock were determined by the CLSI 2005 approved broth microdilution method.

P. mirabilis = assay: Checkerboard assay (FIC index); assay type: cell-based, Proteus mirabilis; conditions: antibiotic combined with PEP35
Protocol: as §5, §6, §7, §8, §9

E. coli [2] = assay: Checkerboard assay (FIC index); assay type: cell-based, Escherichia coli; conditions: antibiotic combined with PEP35
Protocol: Checkerboard assays were carried out as described by Bonapace et al.
as §5, with “Diagnostic” for “The checkerboard assays were carried out as described by Eliopoulos and Moellering (Chapter 9) in Antibiotic in Laboratory Medicine, Lorian Ed. 1996 as well as Bonapace et al. Diagnostic”, “2002; 44:363-366.” for “2002; 44:363-366 and Bonapace et al. Diagnostic Microbiology and Infectious Diseases 2000; 38:43-50.”, “27853. […] All peptides were assessed for synergy with β-lactams and vancomycin.” for “27853.”, “as the peptides,” for “as PEP35,”, “criteria were” for “criteria was”
as §6
The FIC of drug A and drug B was calculated as follows, FIC drug A=MIC of drug A in combination/MIC of drug A alone and FIC of drug B=MIC of drug B in combination/MIC of drug B alone. Synergy was defined as FIC index ≦0.5, additivity/indifference defined as a FIC between 0.5 and 4 and antagonism defined as an FIC index >4.
as §5, §7, §8
Organisms included Gram-positive cocci (2 strains of each): Methicillin-susceptible Staphylococcus aureus (MSSA), community-associated (CA) and healthcare-associated (HA) methicillin-resistant Staphylococcus aureus (MRSA), vancomycin-intermediate Staphylococcus aureus (VISA), vancomycin-resistant Staphylococcus aureus (VRSA), methicillin-resistant Staphylococcus epidermidis (MRSE), Streptococcus pyogenes, Streptococcus agalactiae, Streptococcus pneumoniae, Enterococcus faecalis, Enterococcus faecium and vancomycin-resistant enterococcus (VRE). […]

S. maltophilia = assay: Checkerboard assay (FIC index); assay type: cell-based, Stenotrophomonas maltophilia; conditions: antibiotic combined with PEP35
Protocol: as §5, §6, §7, §8, §9

K. oxytoca = assay: Checkerboard assay (FIC index); assay type: cell-based, Klebsiella oxytoca; conditions: antibiotic combined with PEP35
Protocol: as §5, §6, §7, §8, §9

E. cloacae = assay: Checkerboard assay (FIC index); assay type: cell-based, Enterobacter cloacae; conditions: antibiotic combined with PEP35
Protocol: as §5, §6, §7, §8, §9

K. pneumoniae = assay: Checkerboard assay (FIC index); assay type: cell-based, Klebsiella pneumoniae; conditions: antibiotic combined with PEP35
Protocol: as §5, §6, §7, §8, §9

| Compound | Avg ΣFIC (range) (P. aeruginosa; P. aeruginosa 70849) | Avg ΣFIC (range) (P. aeruginosa; P. aeruginosa 71841) | Avg ΣFIC (range) (P. mirabilis; P. mirabilis 80267) | Avg ΣFIC (range) (P. mirabilis; P. mirabilis 81569) | Avg ΣFIC (range) (E. coli [2]; E. coli 69716) | Avg ΣFIC (range) (E. coli [2]; E. coli 70752) | Avg ΣFIC (range) (S. maltophilia; S. maltophilia 73062) | Avg ΣFIC (range) (S. maltophilia; S. maltophilia 77424) | Avg ΣFIC (range) (K. oxytoca; K. oxytoca 75316) | Avg ΣFIC (range) (K. oxytoca; K. oxytoca 76874) | Avg ΣFIC (range) (E. cloacae; E. cloacae 80194) | Avg ΣFIC (range) (E. cloacae; E. cloacae 83128) | Avg ΣFIC (range) (K. pneumoniae; K. pneumoniae 70508) | Avg ΣFIC (range) (K. pneumoniae; K. pneumoniae 77081) | also measured |
| --- | --- | --- | --- | --- | --- | --- | --- | --- | --- | --- | --- | --- | --- | --- | --- |
| CC1=C(C(=O)O)N2C(=O)[C@@H](NC(=O)[C@H](N)c3ccccc3)[C@H]2SC1 [Cephalexin] | – | – | – | – | – | – | – | – | – | – | – | – | – | – | Cephalexin (MIC) (E. coli [1]; E. coli, antibiotic alone, two values in cell): 8/8; MIC (E. coli [1]; Escherichia coli, E. coli control, agent alone, read-out: MIC): 8 µg/mL; Cephalexin (MIC) (MSSA; S. aureus (control row), antibiotic alone, two values in cell): 4/4; MIC (MSSA): 8 µg/mL; MIC (MSSA; Staphylococcus aureus, MSSA, read-out: MIC): 4 µg/mL; MICs alone, range (CA-MRSA; 50 CA-MRSA strains): 64 to 512 µg/mL; strains resistant to the antibiotic (CA-MRSA; 50 CA-MRSA strains): 50 of the 50 strains; MIC (CA-MRSA; MRSA / USA300): 128 µg/mL; MIC (CA-MRSA; MRSA / USA400): 128 µg/mL; MIC (CA-MRSA; MRSA / USA400, CA-MRSA (CMRSA7/USA400/MW2) isolates, one per table line, agent alone, read-out: MIC): 512 µg/mL; MICs alone, range (HA-MRSA; 50 HA-MRSA strains): 128 to 512 µg/mL; strains resistant to the antibiotic (HA-MRSA; 50 HA-MRSA strains): 50 of the 50 strains; MIC (HA-MRSA; Staphylococcus aureus, MRSA / USA200, read-out: Cephalexin (MIC), HA-MRSA (CMRSA4/USA200), antibiotic alone): 512 µg/mL |
| C[C@H]1COc2c(N3CCN(C)CC3)c(F)cc3c(=O)c(C(=O)O)cn1c23 [Levofloxacin, levofloxacin] | 1.21 (1.03-1.5) | 1.13 (1.0-1.25) | >1* | >1* | 0.93 (0.56-1.12) | 1.13 (0.75-1.12) | 1.21 (1.03-1.5) | 0.94 (0.62-1.12) | 0.88 (0.53-1.25) | 0.94 (0.62-1.12) | 1.13 (1.0-1.25) | 0.98 (0.75-1.12) | 0.97 (0.75-1.12) | 1.14 (1.06-1.25) | – |
| gentamicin | 1.11 (1.03-1.25) | 1.05 (0.75-1.25) | >1* | >1* | 1.4 (1.06-2.12) | 1.05 (0.75-1.25) | 1.4 (0.62-2.25) | 1.99 (1.0-4.25) and 1.98 (1.06-4.25) | 1.24 (0.75-2.12) | 1.10 (0.75-2.06) | 1.4 (0.5-2.12) | 1.05 (0.75-1.25) | 1.13 (1.0-1.25) | 0.89 (0.56-1.25) | – |
